This test relates to HCV 1b genotype. Description: HCV Replicon assay (HCV-neo replicon cells), 1b genotype. It counts as cell-based. To be noted: Hepatitis C virus; HCV 1b genotype replicon; value given as range class; read-out: 1b EC50 (in μM or range). The essentials: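 HCV-neo replicon cells, wild-type and carrying NS5A mutations, used to measure compound inhibition of replication; luciferase reporter replicon formats also applied.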

`COC(=O)N[C@H](C(=O)N1CCC[C@H]1c1nc(CCc2ccc(CCc3cnc([C@@H]4CCCN4C(=O)[C@@H](NC(=O)OC)C(C)C)[nH]3)cc2)c[nH]1)C(C)C` [Example 43, methyl ((1S)-1-(((2S)-2-(4-(2-(4-(2-(2-((2S)-1-((2S)-2-((methoxycarbonyl)amino)-3-methylbutanoyl)-2-pyrrolidinyl)-1H-imidazol-4-yl)ethyl)phenyl)ethyl)-1H-imidazol-2-yl)-1-pyrrolidinyl)carbonyl)-2-methylpropyl)carbamate]: the EC50 lay in the range of 0.001 to 0.01 µM.
The same measure for `COC(=O)N[C@@H](C(=O)N1CCC[C@H]1c1nc(-c2ncc(-c3ccc(-c4cnc([C@@H]5CCCN5C(=O)[C@H](NC(=O)OC)c5ccccc5)[nH]4)cc3)o2)c[nH]1)c1ccccc1` [Example 25, Methyl ((1R)-2-((2S)-2-(4-(4-(2-(2-((2S)-1-((2R)-2-((methoxycarbonyl)amino)-2-phenylacetyl)-2-pyrrolidinyl)-1H-imidazol-4-yl)-1,3-oxazol-5-yl)phenyl)-1H-imidazol-2-yl)-1-pyrrolidinyl)-2-oxo-1-phenylethyl)carbamate]: 0.001 to 0.01 µM.

These data come from patent US8618153B2, “Hepatitis C virus inhibitors” (Bristol-Myers Squibb Company, priority 2009, dated 2013).
